In one experiment the test system is HCV genotype 1b replicon. As to the kind of experiment: HCV replicon assay, genotype 1b replicon EC50. The class given is cell-based, Hepatitis C virus. The following applies: Hepatitis C virus, HCV replicon, genotype 1b, read-out: EC50 [gt-1b]. In outline:
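Stable neomycin phosphotransferase-encoding replicon cell lines, kept under G418 selection beforehand, were plated with a compound dilution series without G418 and incubated 24-48 hours. Replicon RNA was then quantified, or luciferase activity read. EC50 was calculated as percent of DMSO control by four-parameter fit.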

In experiment [1] the target is HCV NS3/4A protease genotype 1b (Hepatitis C virus genotype 1b, UniProt P26663). As to the kind of experiment: HCV NS3/4A protease time-resolved fluorescence (TRF) assay, Ki against genotype 1b. It counts as biochemical. The following applies: IC50 [gt-1b], NS3/4A protease TRF assay, genotype 1b enzyme 0.2 nM. In outline: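 Enzyme 0.2 nM 1b / 0.4 nM A156T / 0.025 nM 3a; 30 min preinc. w/ cpd; 25 nM TRF peptide; 2.5 h RT; ex 340/em 615 time-delayed; 4-param IC50 → Ki = IC50/(1+[S]/KM).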

Molecules are shown by their SMILES. Where two headings read alike, the source gives them in different places.

The EC50 is the midpoint of the concentration-response curve. As usually defined, the IC50 is the concentration at which inhibition is half-maximal. In the case of `COc1ccc2nc(C)c3c(c2n1)[C@H](F)C[C@]1(C[C@H]2C(=O)N[C@]4(C(=O)NS(=O)(=O)C5(C)CC5)C[C@H]4/C=C\CCCCC[C@H](NC(=O)OCC(C)(C)C)C(=O)N2C1)O3` [Example 377, 2,2-dimethylpropyl [(2S,6S,10′R,12Z,13aS,14aR,16aS)-10′-fluoro-2′-methoxy-6′-methyl-14a-{[(1-methylcyclopropyl)sulfonyl]carbamoyl}-5,16-dioxo-1,5,6,7,8,9,9′,10,10′,11,13a,14,14a,15,16,16a-hexadecahydrospiro[cyclopropa[e]pyrrolo[1,2-a][1,4]diazacyclopentadecine-2,8′-pyrano[2,3-c][1,5]naphthyridin]-6-yl]carbamate], the EC50 in the experiment with HCV genotype 1b replicon worked out at 2.52 nM. For the same compound, in experiment [1], inhibition was half-maximal at 0.018 nM (IC50).

Consider `CC(C)(C)OC(=O)N[C@H]1CCCCC/C=C\[C@@H]2C[C@@]2(C(=O)NS(=O)(=O)C2(C)CC2)NC(=O)[C@@H]2C[C@]3(CCc4c(c(C(F)(F)F)nc5ccc(Cl)cc45)O3)CN2C1=O` [Example 378, tert-butyl [(2R,6S,12Z,13aS,14aR,16aS)-9′-chloro-14a-{[(1-methylcyclopropyl)sulfonyl]carbamoyl}-5,16-dioxo-5′-(trifluoromethyl)-1,1′,2′,5,6,7,8,9,10,11,13a,14,14a,15,16,16a-hexadecahydrospiro[cyclopropa[e]pyrrolo[1,2-a][1,4]diazacyclopentadecine-2,3′-pyrano[2,3-c]quinolin]-6-yl]carbamate], for which the EC50 in the experiment with HCV genotype 1b replicon was 3.59 nM. Besides, the IC50 in experiment [1] worked out at 0.02 nM.

Turning to `Cc1nc2ccccc2c2c1O[C@]1(CC2)C[C@H]2C(=O)N[C@]3(C(=O)NS(=O)(=O)C4(C)CC4)C[C@H]3/C=C\CCCCC[C@H](Nc3nc4ccccc4o3)C(=O)N2C1` [Example 379, (2R,6S,12Z,13aS,14aR,16aS)-6-(1,3-benzoxazol-2-ylamino)-5′-methyl-N-[(1-methylcyclopropyl)sulfonyl]-5,16-dioxo-1,1′,2′,6,7,8,9,10,11,13a,14,15,16,16a-tetradecahydrospiro[cyclopropa[e]pyrrolo[1,2-a][1,4]diazacyclopentadecine-2,3′-pyrano[2,3-c]quinoline]-14a(5H)-carboxamide], the EC50 with HCV genotype 1b replicon was determined as 1.36 nM. Also, in experiment [1], the IC50 came to 0.104 nM.

On to `COc1ccc2nc(C)c3c(c2n1)[C@H](F)C[C@]1(C[C@H]2C(=O)N[C@]4(C(=O)NS(=O)(=O)C5(C)CC5)C[C@H]4/C=C\CCCCC[C@H](NC(=O)OC(C)(C)C(F)(F)F)C(=O)N2C1)O3` [Example 380, 1,1,1-trifluoro-2-methylpropan-2-yl [(2S,6S,10′R,12Z,13aS,14aR,16aS)-10′-fluoro-2′-methoxy-6′-methyl-14a-{[(1-methylcyclopropyl)sulfonyl]carbamoyl}-5,16-dioxo-1,5,6,7,8,9,9′,10,10′,11,13a,14,14a,15,16,16a-hexadecahydrospiro[cyclopropa[e]pyrrolo[1,2-a][1,4]diazacyclopentadecine-2,8′-pyrano[2,3-c][1,5]naphthyridin]-6-yl]carbamate], for which the concentration for a half-maximal effect (EC50) with HCV genotype 1b replicon (K+ salt) was found to be 5.62 nM. Also, the IC50 in experiment [1] (K+ salt) was found to be 0.021 nM.

Turning to `Cc1nc2cc(F)c(F)cc2c2c1O[C@]1(CC2)C[C@H]2C(=O)N[C@]3(C(=O)NS(=O)(=O)C4(C)CC4)C[C@H]3/C=C\CCCCC[C@H](NC(=O)OC(C)(C)C(F)(F)F)C(=O)N2C1` [Example 381, 1,1,1-trifluoro-2-methylpropan-2-yl [(2R,6S,12Z,13aS,14aR,16aS)-8′,9′-difluoro-5′-methyl-14a-{[(1-methylcyclopropyl)sulfonyl]carbamoyl}-5,16-dioxo-1,1′,2′,5,6,7,8,9,10,11,13a,14,14a,15,16,16a-hexadecahydrospiro[cyclopropa[e]pyrrolo[1,2-a][1,4]diazacyclopentadecine-2,3′-pyrano[2,3-c]quinolin]-6-yl]carbamate], the EC50 with HCV genotype 1b replicon was determined as 6.74 nM. In experiment [1], this compound displayed a half-maximal inhibitory concentration (IC50) of 0.04 nM.

Turning to `CC(C)COC(=O)N[C@H]1CCCCC/C=C\[C@@H]2C[C@@]2(C(=O)NS(=O)(=O)C2(C)CC2)NC(=O)[C@@H]2C[C@]3(CCc4c(c(C(F)(F)F)nc5ccc(Cl)cc45)O3)CN2C1=O` [Example 383, 2-methylpropyl [(2R,6S,12Z,13aS,14aR,16aS)-9′-chloro-14a-{[(1-methylcyclopropyl)sulfonyl]carbamoyl}-5,16-dioxo-5′-(trifluoromethyl)-1,1′,2′,5,6,7,8,9,10,11,13a,14,14a,15,16,16a-hexadecahydrospiro[cyclopropa[e]pyrrolo[1,2-a][1,4]diazacyclopentadecine-2,3′-pyrano[2,3-c]quinolin]-6-yl]carbamate], the EC50 in the experiment with HCV genotype 1b replicon came out at 38.3 nM. This compound also gave an IC50 in experiment [1] of 0.024 nM.

Take `CC1(S(=O)(=O)NC(=O)[C@@]23C[C@H]2/C=C\CCCCC[C@H](NC(=O)OC2CCCC2)C(=O)N2C[C@@]4(CCc5c(c(C(F)(F)F)nc6ccc(Cl)cc56)O4)C[C@H]2C(=O)N3)CC1` [Example 384, cyclopentyl [(2R,6S,12Z,13aS,14aR,16aS)-9′-chloro-14a-{[(1-methylcyclopropyl)sulfonyl]carbamoyl}-5,16-dioxo-5′-(trifluoromethyl)-1,1′,2′,5,6,7,8,9,10,11,13a,14,14a,15,16,16a-hexadecahydrospiro[cyclopropa[e]pyrrolo[1,2-a][1,4]diazacyclopentadecine-2,3′-pyrano[2,3-c]quinolin]-6-yl]carbamate]: in the experiment with HCV genotype 1b replicon, the EC50 amounted to 19.8 nM. Further, the IC50 in experiment [1] is 0.023 nM.

Take `CC(C)OC(=O)N[C@H]1CCCCC/C=C\[C@@H]2C[C@@]2(C(=O)NS(=O)(=O)C2(C)CC2)NC(=O)[C@@H]2C[C@]3(CCc4c(c(C(F)(F)F)nc5ccc(Cl)cc45)O3)CN2C1=O` [Example 385, propan-2-yl [(2R,6S,12Z,13aS,14aR,16aS)-9′-chloro-14a-{[(1-methylcyclopropyl)sulfonyl]carbamoyl}-5,16-dioxo-5′-(trifluoromethyl)-1,1′,2′,5,6,7,8,9,10,11,13a,14,14a,15,16,16a-hexadecahydrospiro[cyclopropa[e]pyrrolo[1,2-a][1,4]diazacyclopentadecine-2,3′-pyrano[2,3-c]quinolin]-6-yl]carbamate]: in the experiment on HCV genotype 1b replicon, the EC50 turned out to be 6.79 nM. The 50% inhibitory concentration (IC50) in experiment [1] was 0.017 nM.

On to `CC(C)(C)COC(=O)N[C@H]1CCCCC/C=C\[C@@H]2C[C@@]2(C(=O)NS(=O)(=O)C2(C)CC2)NC(=O)[C@@H]2C[C@]3(CCc4c(c(C(F)(F)F)nc5ccc(Cl)cc45)O3)CN2C1=O` [Example 386, 2,2-dimethylpropyl [(2R,6S,12Z,13aS,14aR,16aS)-9′-chloro-14a-{[(1-methylcyclopropyl)sulfonyl]carbamoyl}-5,16-dioxo-5′-(trifluoromethyl)-1,1′,2′,5,6,7,8,9,10,11,13a,14,14a,15,16,16a-hexadecahydrospiro[cyclopropa[e]pyrrolo[1,2-a][1,4]diazacyclopentadecine-2,3′-pyrano[2,3-c]quinolin]-6-yl]carbamate], for which the EC50 in the experiment with HCV genotype 1b replicon worked out at 49.6 nM. This compound also came in with an IC50 in experiment [1] of 0.029 nM.

For `CC(C)(OC(=O)N[C@H]1CCCCC/C=C\[C@@H]2C[C@@]2(C(=O)NS(=O)(=O)C2(C)CC2)NC(=O)[C@@H]2C[C@]3(CCc4c(c(C(F)(F)F)nc5ccc(Cl)cc45)O3)CN2C1=O)C(F)(F)F` [Example 387, 1,1,1-trifluoro-2-methylpropan-2-yl [(2R,6S,12Z,13aS,14aR,16aS)-9′-chloro-14a-{[(1-methylcyclopropyl)sulfonyl]carbamoyl}-5,16-dioxo-5′-(trifluoromethyl)-1,1′,2′,5,6,7,8,9,10,11,13a,14,14a,15,16,16a-hexadecahydrospiro[cyclopropa[e]pyrrolo[1,2-a][1,4]diazacyclopentadecine-2,3′-pyrano[2,3-c]quinolin]-6-yl]carbamate], in the experiment with HCV genotype 1b replicon, the EC50 turned out to be 20.1 nM. This compound had an IC50 in experiment [1] of 0.038 nM.

`COc1ccc2nc(C(C)C)c3c(c2c1)[C@H](F)C[C@]1(C[C@H]2C(=O)N[C@]4(C(=O)NS(=O)(=O)C5(C)CC5)C[C@H]4/C=C\CCCCC[C@H](NC(=O)OCC(C)(C)C)C(=O)N2C1)O3` [Example 388, 2,2-dimethylpropyl [(1′R,2S,6S,12Z,13aS,14aR,16aS)-1′-fluoro-9′-methoxy-14a-{[(1-methylcyclopropyl)sulfonyl]carbamoyl}-5,16-dioxo-5′-(propan-2-yl)-1,1′,2′,5,6,7,8,9,10,11,13a,14,14a,15,16,16a-hexadecahydrospiro[cyclopropa[e]pyrrolo[1,2-a][1,4]diazacyclopentadecine-2,3′-pyrano[2,3-c]quinolin]-6-yl]carbamate]: in the experiment on HCV genotype 1b replicon, the EC50 is 1.31 nM. The IC50 in experiment [1] worked out at 0.028 nM.

For the compound `Cc1ccc2nc(C(F)(F)F)c3c(c2c1)CC[C@]1(C[C@H]2C(=O)N[C@]4(C(=O)NS(=O)(=O)C5(C)CC5)C[C@H]4/C=C\CCCCC[C@H](NC(=O)OC(C)(C)C)C(=O)N2C1)O3` [Example 389, tert-butyl [(2R,6S,12Z,13aS,14aR,16aS)-9′-methyl-14a-{[(1-methylcyclopropyl)sulfonyl]carbamoyl}-5,16-dioxo-5′-(trifluoromethyl)-1,1′,2′,5,6,7,8,9,10,11,13a,14,14a,15,16,16a-hexadecahydrospiro[cyclopropa[e]pyrrolo[1,2-a][1,4]diazacyclopentadecine-2,3′-pyrano[2,3-c]quinolin]-6-yl]carbamate], in the experiment on HCV genotype 1b replicon, the EC50 was determined as 2.61 nM. 0.011 nM corresponded to half-maximal inhibition in experiment [1] (IC50).

Values taken from patent publication US8987195B2 (priority 2012, dated 2015).
